Our source for the IC50 values is US8748421B2, “Triazine compounds as P13 kinase and MTOR inhibitors” (Wyeth LLC, priority 2009, dated 2014).

For one assay, the target named is PI3K-alpha (Homo sapiens, UniProt P42336). The assay can be described thus: PI3K-alpha fluorescence polarization assay. As to conditions: read-out: IC50 PI3Kα.
The next assay deals with PI3K-gamma (Homo sapiens, UniProt P48736). The assay can be described thus: PI3K-gamma fluorescence polarization assay. The note with it: read-out: IC50 PI3Kγ. A general note: Fluorescence polarisation rises when a labelled molecule tumbles more slowly, as on binding a larger partner.
PI3K-gamma, sequence (P48736 whole entry, species assumed): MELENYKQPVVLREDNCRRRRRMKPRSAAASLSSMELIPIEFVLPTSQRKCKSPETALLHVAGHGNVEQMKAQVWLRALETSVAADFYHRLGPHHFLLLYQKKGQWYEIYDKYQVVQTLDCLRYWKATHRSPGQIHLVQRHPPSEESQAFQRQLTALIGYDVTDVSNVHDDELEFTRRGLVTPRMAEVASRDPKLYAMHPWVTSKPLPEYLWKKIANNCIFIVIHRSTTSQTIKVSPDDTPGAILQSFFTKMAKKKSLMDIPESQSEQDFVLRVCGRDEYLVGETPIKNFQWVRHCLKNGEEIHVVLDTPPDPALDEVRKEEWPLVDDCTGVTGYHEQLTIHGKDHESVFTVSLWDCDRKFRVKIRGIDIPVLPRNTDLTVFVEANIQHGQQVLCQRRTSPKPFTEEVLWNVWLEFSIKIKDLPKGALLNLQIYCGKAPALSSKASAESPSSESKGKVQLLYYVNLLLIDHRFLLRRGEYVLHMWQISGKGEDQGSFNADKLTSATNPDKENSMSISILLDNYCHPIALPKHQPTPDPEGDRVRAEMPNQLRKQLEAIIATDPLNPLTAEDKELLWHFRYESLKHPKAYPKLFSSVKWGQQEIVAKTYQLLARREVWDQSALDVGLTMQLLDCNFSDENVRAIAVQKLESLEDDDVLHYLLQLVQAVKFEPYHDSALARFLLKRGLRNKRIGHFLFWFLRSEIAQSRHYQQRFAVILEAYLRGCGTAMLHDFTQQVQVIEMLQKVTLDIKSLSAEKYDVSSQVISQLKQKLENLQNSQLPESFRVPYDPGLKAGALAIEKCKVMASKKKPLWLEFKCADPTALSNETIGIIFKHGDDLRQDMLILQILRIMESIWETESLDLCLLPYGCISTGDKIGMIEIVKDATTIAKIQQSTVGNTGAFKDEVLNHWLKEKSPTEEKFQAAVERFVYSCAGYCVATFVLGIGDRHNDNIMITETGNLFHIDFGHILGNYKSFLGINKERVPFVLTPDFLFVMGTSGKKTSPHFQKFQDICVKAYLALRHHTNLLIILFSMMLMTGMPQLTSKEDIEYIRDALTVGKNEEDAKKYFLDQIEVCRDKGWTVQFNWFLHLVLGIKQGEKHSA

PI3K-alpha, sequence (P42336 whole entry, species assumed): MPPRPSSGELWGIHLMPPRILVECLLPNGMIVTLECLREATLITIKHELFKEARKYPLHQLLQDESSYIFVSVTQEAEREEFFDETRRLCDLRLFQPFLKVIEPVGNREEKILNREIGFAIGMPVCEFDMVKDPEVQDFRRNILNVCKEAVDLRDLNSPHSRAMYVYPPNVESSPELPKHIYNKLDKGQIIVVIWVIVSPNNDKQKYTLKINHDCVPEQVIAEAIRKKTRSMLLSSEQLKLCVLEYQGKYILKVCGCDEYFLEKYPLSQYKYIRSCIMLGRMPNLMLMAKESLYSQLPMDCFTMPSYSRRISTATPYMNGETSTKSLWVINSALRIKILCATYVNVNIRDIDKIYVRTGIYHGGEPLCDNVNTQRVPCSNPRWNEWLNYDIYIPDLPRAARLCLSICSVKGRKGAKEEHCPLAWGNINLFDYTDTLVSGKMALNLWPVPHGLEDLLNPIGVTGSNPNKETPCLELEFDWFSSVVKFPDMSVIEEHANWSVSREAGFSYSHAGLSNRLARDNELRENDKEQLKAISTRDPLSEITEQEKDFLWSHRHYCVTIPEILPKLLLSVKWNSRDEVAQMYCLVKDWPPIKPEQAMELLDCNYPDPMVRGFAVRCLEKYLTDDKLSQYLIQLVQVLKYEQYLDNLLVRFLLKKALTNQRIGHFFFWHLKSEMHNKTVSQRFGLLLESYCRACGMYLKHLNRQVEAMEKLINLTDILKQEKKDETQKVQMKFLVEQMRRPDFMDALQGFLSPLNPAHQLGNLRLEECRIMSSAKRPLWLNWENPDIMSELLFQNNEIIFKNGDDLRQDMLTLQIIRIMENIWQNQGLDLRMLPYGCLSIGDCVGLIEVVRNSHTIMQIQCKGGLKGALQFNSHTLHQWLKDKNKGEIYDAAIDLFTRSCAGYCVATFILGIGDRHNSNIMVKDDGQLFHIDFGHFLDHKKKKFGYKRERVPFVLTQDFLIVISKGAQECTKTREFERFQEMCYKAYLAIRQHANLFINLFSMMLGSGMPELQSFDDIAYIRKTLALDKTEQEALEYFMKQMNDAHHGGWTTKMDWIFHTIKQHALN
PI3K-alpha, sequence (P27986 whole entry partner, species assumed): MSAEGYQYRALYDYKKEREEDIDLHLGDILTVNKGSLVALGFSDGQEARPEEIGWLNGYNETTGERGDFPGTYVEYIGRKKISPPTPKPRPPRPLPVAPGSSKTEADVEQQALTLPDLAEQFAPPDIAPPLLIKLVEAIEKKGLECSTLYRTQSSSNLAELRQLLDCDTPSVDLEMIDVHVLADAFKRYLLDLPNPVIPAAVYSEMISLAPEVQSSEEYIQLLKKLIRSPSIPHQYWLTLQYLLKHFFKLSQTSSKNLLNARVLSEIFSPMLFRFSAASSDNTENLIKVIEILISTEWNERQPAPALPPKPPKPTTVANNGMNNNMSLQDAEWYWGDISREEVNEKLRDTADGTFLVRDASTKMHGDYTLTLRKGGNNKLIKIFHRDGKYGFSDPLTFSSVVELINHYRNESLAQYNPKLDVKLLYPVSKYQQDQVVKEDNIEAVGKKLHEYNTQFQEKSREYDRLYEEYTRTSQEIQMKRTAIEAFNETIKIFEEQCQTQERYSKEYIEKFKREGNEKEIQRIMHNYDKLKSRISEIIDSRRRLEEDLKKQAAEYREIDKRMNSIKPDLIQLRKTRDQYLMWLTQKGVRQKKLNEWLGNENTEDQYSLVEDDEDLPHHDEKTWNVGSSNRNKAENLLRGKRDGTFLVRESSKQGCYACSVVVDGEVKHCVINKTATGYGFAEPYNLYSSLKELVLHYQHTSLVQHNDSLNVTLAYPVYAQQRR

Broadly, the IC50 is the concentration that gives 50% inhibition. In the case of `CC(C)N1CCCN(c2nc(-c3ccc(NC(=O)Nc4ccc(C(=O)N5CC[C@@H](N(C)C)C5)cc4)cc3)nc(N3CCOCC3)n2)CC1` [Example 844, 1-(4-{[(3R)-3-(dimethylamino)pyrrolidin-1-yl]carbonyl}phenyl)-3-(4-{4-(morpholin-4-yl)-6-[4-(propan-2-yl)-1,4-diazepan-1-yl]-1,3,5-triazin-2-yl}phenyl)urea], the 50% inhibitory concentration (IC50) was 21 nM on PI3K-alpha and 238 nM at PI3K-gamma.
In the same order, the values of `CC(C)N1CCCN(c2nc(-c3ccc(NC(=O)Nc4ccc(C(=O)N5CCN(C)CC5)cc4)cc3)nc(N3CCOC[C@@H]3C)n2)CC1` [Example 855, 1-(4-{4-[(3S)-3-methylmorpholin-4-yl]-6-[4-(propan-2-yl)-1,4-diazepan-1-yl]-1,3,5-triazin-2-yl}phenyl)-3-{4-[(4-methylpiperazin-1-yl)carbonyl]phenyl}urea] are 54 nM and 864 nM.
In the same order, the values of `CN1CCN(C(=O)c2ccc(NC(=O)Nc3ccc(-c4nc(C5CCOCC5)nc(N5CCOCC5)n4)cc3)cc2)CC1(C)C` [Example 865, 1-{4-[4-(morpholin-4-yl)-6-(tetrahydro-2H-pyran-4-yl)-1,3,5-triazin-2-yl]phenyl}-3-{4-[(3,3,4-trimethylpiperazin-1-yl)carbonyl]phenyl}urea] are 2.45 nM and 12 nM.
In the same order, the values of `CN(C)[C@H]1CCN(C(=O)c2ccc(NC(=O)Nc3ccc(-c4nc(C5CCOCC5)nc(N5CCOCC5)n4)cc3)cc2)C1` [Example 869, 1-(4-{[(3S)-3-(dimethylamino)pyrrolidin-1-yl]carbonyl}phenyl)-3-{4-[4-morpholin-4-yl-6-(tetrahydro-2H-pyran-4-yl)-1,3,5-triazin-2-yl]phenyl}urea] are 0.6 nM and 6.5 nM.
As to `O=C(Nc1ccc(-c2nc(N3CCOCC3)nc(N3CCOCC3)n2)cc1)Nc1ccc(C(O)(C(F)(F)F)C(F)(F)F)cc1` [Example 86, 1-[4-(4,6-dimorpholin-4-yl-1,3,5-triazin-2-yl)phenyl]-3-{4-[2,2,2-trifluoro-1-hydroxy-1-(trifluoromethyl)ethyl]phenyl}urea], the concentration for half-maximal inhibition (IC50) at PI3K-alpha came out at 122 nM; on PI3K-gamma it was 444 nM.
In the same order, the values of `C[C@H]1CN(C(=O)c2ccc(NC(=O)Nc3ccc(-c4nc(N5CCOCC5)nc(N5CCOCC5)n4)cc3)cc2)CCN1C1CCC1` [Example 863, 1-(4-{[(3S)-4-cyclobutyl-3-methylpiperazin-1-yl]carbonyl}phenyl)-3-{4-[4,6-di(morpholin-4-yl)-1,3,5-triazin-2-yl]phenyl}urea] are 2.1 nM and 8 nM.
In the same order, the values of `C[C@H]1CN(C(=O)c2ccc(NC(=O)Nc3ccc(-c4nc(C5CCOCC5)nc(N5CCOCC5)n4)cc3)cc2)CCN1` [Example 867, 1-(4-{[(3S)-3-methylpiperazin-1-yl]carbonyl}phenyl)-3-{4-[4-(morpholin-4-yl)-6-(tetrahydro-2H-pyran-4-yl)-1,3,5-triazin-2-yl]phenyl}urea] are 0.4 nM and 7 nM.
The matching figures for `C[C@@H]1CN(C(=O)c2ccc(NC(=O)Nc3ccc(-c4nc(N5CCOCC5)nc(N5CCOCC5)n4)cc3)cc2)CCN1C1CCC1` [Example 851, 1-(4-{[(3R)-4-cyclobutyl-3-methylpiperazin-1-yl]carbonyl}phenyl)-3-{4-[4,6-di(morpholin-4-yl)-1,3,5-triazin-2-yl]phenyl}urea]: 0.85 nM and 5.6 nM.
In the case of `CC1CNCCN1C(=O)c1ccc(NC(=O)Nc2ccc(-c3nc(N4CCOCC4)nc(N4CCOCC4)n3)cc2)cc1` (stereo not shown) [Example 845, 1-{4-[4,6-di(morpholin-4-yl)-1,3,5-triazin-2-yl]phenyl}-3-{4-[(2-methylpiperazin-1-yl)carbonyl]phenyl}urea], the IC50 on PI3K-alpha was determined as 0.25 nM; at PI3K-gamma, 2.75 nM.
As to `CC(C)N1CCN(C(=O)c2ccc(NC(=O)Nc3ccc(-c4nc(N5CCOCC5)nc(N5CCOCC5)n4)cc3)cc2)C[C@H]1C` [Example 852, 1-{4-[4,6-di(morpholin-4-yl)-1,3,5-triazin-2-yl]phenyl}-3-(4-{[(3R)-3-methyl-4-(propan-2-yl)piperazin-1-yl]carbonyl}phenyl)urea], the figures for the half-maximal inhibitory concentration (IC50) on PI3K-alpha and at PI3K-gamma were 0.4 nM and 5.55 nM, respectively.
The matching figures for `CN(C)CCN(C)C(=O)c1ccc(NC(=O)Nc2ccc(-c3nc(C4CCOCC4)nc(N4CCOCC4)n3)cc2)cc1` [Example 834, N-[2-(dimethylamino)ethyl]-N-methyl-4-[({4-[4-morpholin-4-yl-6-(tetrahydro-2H-pyran-4-yl)-1,3,5-triazin-2-yl]phenyl}carbamoyl)amino]benzamide]: 0.75 nM and 10 nM.
The matching figures for `CC(=O)NC1CCN(C(=O)c2ccc(NC(=O)Nc3ccc(-c4nc(N5CCOC[C@@H]5C)nc(N5CCOC[C@@H]5C)n4)cc3)cc2)CC1` [Example 837, N-{1-[(4-{[(4-{4,6-bis[(3S)-3-methylmorpholin-4-yl]-1,3,5-triazin-2-yl}phenyl)carbamoyl]amino}phenyl)carbonyl]piperidin-4-yl}acetamide]: 11.9 nM and 75 nM.
The matching figures for `C[C@@H]1CN(C(=O)c2ccc(NC(=O)Nc3ccc(-c4nc(N5CCOCC5)nc(N5CCOCC5)n4)cc3)cc2)CCN1` [Example 849, 1-{4-[4,6-di(morpholin-4-yl)-1,3,5-triazin-2-yl]phenyl}-3-(4-{[(3R)-3-methylpiperazin-1-yl]carbonyl}phenyl)urea]: 0.3 nM and 3.17 nM.
In the case of `CC(C)N1CCCN(C(=O)c2ccc(NC(=O)Nc3ccc(-c4nc(N5CCOC[C@@H]5C)nc(N5CCOC[C@@H]5C)n4)cc3)cc2)CC1` [Example 838, 1-(4-{4,6-bis[(3S)-3-methylmorpholin-4-yl]-1,3,5-triazin-2-yl}phenyl)-3-(4-{[4-(1-methylethyl)-1,4-diazepan-1-yl]carbonyl}phenyl)urea], the IC50 was 4.95 nM on PI3K-alpha and 24.5 nM at PI3K-gamma.
In the same order, the values of `C[C@H]1CN(C(=O)c2ccc(NC(=O)Nc3ccc(-c4nc(N5CCOCC5)nc(N5CCOCC5)n4)cc3)cc2)CCN1` [Example 853, 1-{4-[4,6-di(morpholin-4-yl)-1,3,5-triazin-2-yl]phenyl}-3-(4-{[(3S)-3-methylpiperazin-1-yl]carbonyl}phenyl)urea] are 0.3 nM and 5.05 nM.
The matching figures for `C[C@H]1COCCN1c1nc(-c2ccc(NC(=O)Nc3ccc(C(=O)N4CCC(C#N)CC4)cc3)cc2)nc(N2CCOC[C@@H]2C)n1` [Example 840, 1-(4-{4,6-bis[(3S)-3-methylmorpholin-4-yl]-1,3,5-triazin-2-yl}phenyl)-3-{4-[(4-cyanopiperidin-1-yl)carbonyl]phenyl}urea]: 5.15 nM and 15 nM.
The matching figures for `CC(C)N1CCCN(C(=O)c2ccc(NC(=O)Nc3ccc(-c4nc(N5CCOCC5)nc(N5CCCN(C(C)C)CC5)n4)cc3)cc2)CC1` [Example 862, 1-(4-{4-(morpholin-4-yl)-6-[4-(propan-2-yl)-1,4-diazepan-1-yl]-1,3,5-triazin-2-yl}phenyl)-3-(4-{[4-(propan-2-yl)-1,4-diazepan-1-yl]carbonyl}phenyl)urea]: 23.5 nM and 154 nM.
